Laboratory results from ChEMBL document CHEMBL1201862, “PubChem BioAssay data set” (2004).
Several values for one entry are separate records, joined by “and”; a condition that tells them apart may be missing. Identical values can stand only once.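 Protocol summary: plate cells (96-well), add compound at 5 concentrations, incubate 48 h, interpolate endpoints linearly. Here, GI50 denotes the concentration required for 50% inhibition of growth.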 Activity calls are given as the source filed them. No stated cut-off is given here; in the data, active = GI50 up to about 1.1 µM and inactive = higher.

Key:
Assay in all cases: NCI-60 cell line screen, 48 h
[1] = tested on: BT-549
[2] = tested on: DMS-273
[3] = tested on: KM-20L2
[4] = tested on: LXFL 529
[5] = tested on: M19-MEL
[6] = tested on: SNB-78
[7] = tested on: HOP-18
[8] = tested on: RXF 631
[9] = tested on: XF498

`Cc1cc(C)nc(NS(=O)(=O)c2ccc(Nc3nncc(=O)n3N)cc2)n1` was tested, and the GI50 [1] was 18.4 µM (inactive).

For `N#CC12CNCC1CN=N2` (configuration not stated), the GI50 [1] was > 100 µM (inactive).

In the case of `CC(=O)Nc1ccc(-c2nnc(SCC(=O)Nc3ccc(Cl)cc3)o2)cc1`, the GI50 [2] is reported as 14.5 µM (inactive), the GI50 [3] is reported as 16.4 µM (inactive) and the GI50 [4] is reported as 8.97 µM (inactive). For the same molecule, the GI50 [5] was 11.7 µM (inactive), the GI50 [6] was 46.2 µM (inactive) and the GI50 [7] was 15 µM (inactive).

In the case of `COc1ccc2c(c1O)-c1c(OC)c(OC)cc3c1[C@H](C2)[N+](C)(C)CC3`, the GI50 [1] is reported as > 100 µM (inactive).

For `Cc1cc(C)nc(NC(=O)COc2ccc(Cl)cc2)c1`, the GI50 [1] was > 100 µM (inactive).

For `O=C1/C(=C/c2ccc(O)cc2)CCC1CNc1ccccc1` (configuration not stated), the GI50 [1] was 14.5 µM (inactive).

For `O=C(NC(=O)c1cn(CCNCCO)c(=O)[nH]c1=O)OCc1ccccc1`, the GI50 [4] was > 100 µM (inactive), the GI50 [5] was > 100 µM (inactive) and the GI50 [6] was > 100 µM (inactive). The GI50 [7] was < 0.01 µM (active).

In the case of `C(=N\C12CC3CC(CC(C3)C1)C2)/C1CCCCC1`, the GI50 [1] is reported as > 100 µM (inactive).

With `COc1cccc2c1C(=O)c1c(O)c3c(c(O)c1C2=O)C[C@@](O)(C(=O)CO)C[C@@H]3OC1CC(N)C(O)C(C)O1` (some centres not stated) the GI50 [2] was 0.0883 µM (active), the GI50 [3] was 0.879 µM (active) and the GI50 [1] was 438 nM (active) and 255 nM (active). The GI50 [8] was 0.912 µM (active), the GI50 [5] was 0.2 µM (active) and the GI50 [6] was 0.457 µM (active). The GI50 [7] was 0.478 µM (active).

With `CCCCCC(=O)N[C@H]1CCc2cc(OC)c(OC)c(OC)c2-c2ccc(SC)c(=O)cc21` the GI50 [3] was 0.0154 µM (active), the GI50 [4] was 0.0204 µM (active) and the GI50 [5] was 0.0229 µM (active). The GI50 [6] was 0.00419 µM (active) and the GI50 [9] was 0.0239 µM (active).

In the case of `CC1=C(N2CC2)C(=O)c2nc3n(c2C1=O)CCC3OC(=O)CCl` (configuration not stated), the GI50 [2] is reported as 0.049 µM (active), the GI50 [3] is reported as 0.131 µM (active) and the GI50 [1] is reported as 0.0152 µM (active). For the same molecule, the GI50 [4] was 0.0776 µM (active), the GI50 [5] was 0.0817 µM (active) and the GI50 [6] was 0.193 µM (active). For the same molecule, the GI50 [7] was 0.043 µM (active) and the GI50 [9] was 0.0301 µM (active).

For `CCCCC(=O)OCC(=O)[C@]1(O)Cc2c(O)c3c(c(O)c2[C@@H](OC2CC(NC(=O)C(F)(F)F)C(O)C(C)O2)C1)C(=O)c1c(OC)cccc1C3=O` (some centres not stated), the GI50 [2] was 0.138 µM (active), the GI50 [3] was 2.19 µM (inactive) and the GI50 [1] was 2.11 µM (inactive). The GI50 [4] was 0.743 µM (active), the GI50 [8] was 0.682 µM (active) and the GI50 [5] was 0.331 µM (active). For the same molecule, the GI50 [9] was 0.161 µM (active).

`COC(=O)CNC(=O)/C=C/[C@H](O[Si](C)(C)C(C)(C)C)[C@H](/C=C/C(=O)NCC(=O)OC)O[Si](C)(C)C(C)(C)C` was tested, and the GI50 [1] was > 25 µM (inactive).

In the case of `O=C(/C=C/c1ccccc1)OCC1=C[C@@H](O)[C@@H]2C=CO[C@@H](OC3OC(CO)C(O)C(O)C3O)[C@H]12` (some centres not stated), the GI50 [1] is reported as > 100 µM (inactive).

`CCOc1ccc(NCc2cc(OC)c(OC)c(OC)c2)cc1` was tested, and the GI50 [3] was 0.475 µM (active) and the GI50 [1] was 0.125 µM (active).

With `C[n+]1c2ccccc2c(N=[N+]=[N-])c2ccccc21` the GI50 [1] was > 10 µM (inactive).

`N#Cc1c(N)n(C2OC(CO)C(O)C2O)c2ncnc(N)c12` (configuration not stated) was tested, and the GI50 [1] was 0.152 µM (active).

For `O=C(C/N=C(\CN(c1ccccc1)c1ccccc1)Oc1c(Cl)cc(Cl)cc1Cl)N1c2ccccc2Sc2ccccc21`, the GI50 [1] was 17.3 µM (inactive).

With `O=c1[nH]c2ccc(C(F)(F)F)cc2nc1C(F)(F)F` the GI50 [1] was 22.2 µM (inactive).

In the case of `CC(C)(C)[Si](C)(C)OCC1OC(n2ccc(=O)[nH]c2=O)C(O[Si](C)(C)C(C)(C)C)[C@@]12O[C@H]2C(N)=O` (some centres not stated), the GI50 [1] is reported as 18.5 µM (inactive).

`O=C(COc1ccc(OCC(=O)N2C(=O)CS/C2=N\c2ccccc2)cc1)N1C(=O)CS/C1=N\c1ccccc1` was tested, and the GI50 [1] was 18 µM (inactive).

`COc1c2c(c(OC)c3c(=O)cc(C/C(=N/NC(=O)C[n+]4ccccc4)C(=O)Nc4cc(C)ccc4C)oc13)OCO2` was tested, and the GI50 [2] was > 100 µM (inactive), the GI50 [3] was > 100 µM (inactive) and the GI50 [4] was > 100 µM (inactive). For the same molecule, the GI50 [5] was > 100 µM (inactive) and the GI50 [6] was > 100 µM (inactive).

For `CCCC(C)n1c(C)nc2c1C(=O)c1ccccc1C2=O` (configuration not stated), the GI50 [2] was 7.24 µM (inactive), the GI50 [3] was 18.9 µM (inactive) and the GI50 [4] was 12.7 µM (inactive). For the same molecule, the GI50 [5] was 12.6 µM (inactive), the GI50 [6] was 21.9 µM (inactive) and the GI50 [9] was 20.8 µM (inactive).

With `CCSc1nc(-c2cccs2)nc2ccc(I)cc12` the GI50 [1] was > 100 µM (inactive).

`Cc1nc2c(n1CCN(C)C)C(=O)c1ccccc1C2=O` was tested, and the GI50 [2] was 13.5 µM (inactive), the GI50 [3] was 6.31 µM (inactive) and the GI50 [4] was 17.9 µM (inactive). The GI50 [5] was 2.02 µM (inactive), the GI50 [6] was 24.7 µM (inactive) and the GI50 [9] was 18.3 µM (inactive).

For `CN1C(OCc2ccccc2)c2c(ccc3c2OCO3)C2C=Cc3cc4c(cc3C21)OCO4` (configuration not stated), the GI50 [3] was 1.59 µM (inactive), the GI50 [4] was 0.371 µM (active) and the GI50 [8] was 0.841 µM (active). For the same molecule, the GI50 [5] was 0.19 µM (active), the GI50 [6] was 0.598 µM (active) and the GI50 [7] was 1.33 µM (inactive).
